# Reference: patent US11845759B2, “Opioid compounds and uses thereof” (priority 2018, dated 2023)
# How the values were obtained:
# [1] = Hydrolysis in human blood serum at 37° C.; details: 6,14-bis-PEG-Oxycodone (86%, 14% mono-PEG) in human serum, 37° C.
# [2] = Hydrolysis in simulated intestinal fluid at 37° C.; details: for 6,14-bis-PEG-Oxy (%): 6,14-bis-PEG-Oxycodone (86%, 14% mono-PEG) in simulated Intestinal fluid (pH=6.8), 37° C.; for 6-lauroyl-Oxy (%): 6-lauroyl-Oxycodone, simulated intestinal fluid with 0.5% Polysorbate 80, 37° C.
# [3] = biological target: T1, μ-opioid receptor (Homo sapiens (Human), UniProt P35372); format: binding
# [4] = Hydrolysis in simulated gastric fluid at 37° C.; details: 6,14-bis-PEG-Oxycodone (86%, 14% mono-PEG) in simulated gastric fluid (pH=1.2)
# [5] = biological target: T1, μ-opioid receptor; test: [35S]GTPγS μ-opioid receptor functional assay; format: biochemical; details: for % Response Agonist: Conc. 3 μM, criteria ≥± 50%
# [6] = Hydrolysis in HCl solutions; format: physicochemical; details: 6,14-bis-lauroyl-Oxycodone, 1.0N HCl (75% EtOH)
# [7] = Hydrolysis in pH buffer/EtOH solutions; format: physicochemical
# [8] = 6,14-bis-lauroyl-Oxycodone, pH 7 buffer (75% EtOH), 0 h
# [9] = 6,14-bis-lauroyl-Oxycodone, pH 7 buffer (75% EtOH), 0.5 h
# [10] = 6,14-bis-lauroyl-Oxycodone, pH 7 buffer (75% EtOH), 2 h
# [11] = 6,14-bis-lauroyl-Oxycodone, pH 7 buffer (75% EtOH), 4 h
# [12] = 6,14-bis-lauroyl-Oxycodone, pH 7 buffer (75% EtOH), 8 h
# [13] = 6,14-bis-lauroyl-Oxycodone, pH 7 buffer (75% EtOH), 24 h
# [14] = 6,14-bis-lauroyl-Oxycodone, pH 9 buffer (75% EtOH), 0 h
# [15] = 6,14-bis-lauroyl-Oxycodone, pH 9 buffer (75% EtOH), 0.5 h
# [16] = 6,14-bis-lauroyl-Oxycodone, pH 9 buffer (75% EtOH), 2 h
# [17] = 6,14-bis-lauroyl-Oxycodone, pH 9 buffer (75% EtOH), 8.5 h
# [18] = 6,14-bis-lauroyl-Oxycodone, pH 9 buffer (75% EtOH), 22.5 h
# [19] = 6,14-bis-lauroyl-Oxycodone, pH 11 buffer (75% EtOH), 0 h
# [20] = 6,14-bis-lauroyl-Oxycodone, pH 11 buffer (75% EtOH), 0.17 h
# [21] = 6,14-bis-lauroyl-Oxycodone, pH 11 buffer (75% EtOH), 0.5 h
# [22] = 6,14-bis-lauroyl-Oxycodone, pH 11 buffer (75% EtOH), 2 h
# [23] = 6,14-bis-lauroyl-Oxycodone, pH 11 buffer (75% EtOH), 8.5 h
# [24] = 6,14-bis-lauroyl-Oxycodone, pH 11 buffer (75% EtOH), 22.5 h
# [25] = 6-lauroyl-Oxycodone, pH 9 buffer (75% EtOH), 0 h
# [26] = 6-lauroyl-Oxycodone, pH 9 buffer (75% EtOH), 0.5 h
# [27] = 6-lauroyl-Oxycodone, pH 9 buffer (75% EtOH), 2 h
# [28] = 6-lauroyl-Oxycodone, pH 9 buffer (75% EtOH), 4 h
# [29] = 6-lauroyl-Oxycodone, pH 9 buffer (75% EtOH), 8 h
# [30] = 6-lauroyl-Oxycodone, pH 11 buffer (75% EtOH), 0 h
# [31] = 6-lauroyl-Oxycodone, pH 11 buffer (75% EtOH), 0.5 h
# [32] = 6-lauroyl-Oxycodone, pH 11 buffer (75% EtOH), 4 h
# [33] = 6-lauroyl-Oxycodone, pH 11 buffer (75% EtOH), 8 h
compound,measurement,setting,value
"COCCOCCOCC(=O)OC1=CCC2(OC(=O)COCCOCCOC)[C@H]3Cc4ccc(OC)c5c4[C@@]2(CCN3C)C1O5 (some centres unmarked) [6,14-bis-PEG oxycodone]","6,14-bis-PEG-Oxy (%)",[1]; 0 h,86%
same,"6,14-bis-PEG-Oxy (%)",[1]; 0.17 h,0.71%
same,"6,14-bis-PEG-Oxy (%)",[1]; 1 h,0%
same,"6,14-bis-PEG-Oxy (%)",[2]; 0 h,86%
same,"6,14-bis-PEG-Oxy (%)",[2]; 0.17 h,0%
same,Ki,[3],52 nM
same,Ki compared with that of oxycodone (in words),[3],comparable
same,"6,14-bis-PEG-Oxy (%)",[4]; 0 h,86%
same,"6,14-bis-PEG-Oxy (%)",[4]; 1 h,77.7%
same,"6,14-bis-PEG-Oxy (%)",[4]; 2 h,72.5%
same,"6,14-bis-PEG-Oxy (%)",[4]; 4 h,65.6%
same,"6,14-bis-PEG-Oxy (%)",[4]; 20 h,30.2%
same,EC50,[5],520 nM
same,% Response Agonist,[5],85%
same,functional profile at μ-opioid receptor (in words),[5]; conclusion from Table 23,μ-receptor agonist as effective as oxycodone
"CCCCCCCCCCCC(=O)OC1=CC[C@@]2(OC(=O)CCCCCCCCCCC)[C@H]3Cc4ccc(OC)c5c4[C@@]2(CCN3C)C1O5 (some centres unmarked) [6,14-bis-lauroyl oxycodone]","6,14-bis-lauroyl-Oxy (%)",[6]; 0 h,99%
same,Oxy (%),[6]; 0 h,0%
same,mono-lauroyl-Oxy (%),[6]; 0 h,0%
same,"6,14-bis-lauroyl-Oxy (%)",[6]; 0.5 h,97%
same,Oxy (%),[6]; 0.5 h,0%
same,mono-lauroyl-Oxy (%),[6]; 0.5 h,2.9%
same,"6,14-bis-lauroyl-Oxy (%)",[6]; 2 h,95.1%
same,Oxy (%),[6]; 2 h,0%
same,mono-lauroyl-Oxy (%),[6]; 2 h,4.7%
same,"6,14-bis-lauroyl-Oxy (%)",[6]; 4 h,94%
same,Oxy (%),[6]; 4 h,0%
same,mono-lauroyl-Oxy (%),[6]; 4 h,6%
same,"6,14-bis-lauroyl-Oxy (%)",[6]; 8 h,91.4%
same,Oxy (%),[6]; 8 h,0%
same,mono-lauroyl-Oxy (%),[6]; 8 h,8.6%
same,"6,14-bis-lauroyl-Oxy (%)",[6]; 24 h,77.1%
same,Oxy (%),[6]; 24 h,0%
same,mono-lauroyl-Oxy (%),[6]; 24 h,22.9%
same,Ki,[3],22200 nM
same,Ki compared with that of oxycodone (in words),[3],significantly higher
same,binding to μ-opioid receptor (in words),[3],does not bind to μ-opioid receptor well
same,"6,14-bis-lauroyl-Oxy (%)",[7]; [8],99%
same,Oxy (%),[7]; [8],0%
same,mono-lauroyl-Oxy (%),[7]; [8],0%
same,"6,14-bis-lauroyl-Oxy (%)",[7]; [9],98%
same,Oxy (%),[7]; [9],0%
same,mono-lauroyl-Oxy (%),[7]; [9],1%
same,"6,14-bis-lauroyl-Oxy (%)",[7]; [10],98%
same,Oxy (%),[7]; [10],0%
same,mono-lauroyl-Oxy (%),[7]; [10],2%
same,"6,14-bis-lauroyl-Oxy (%)",[7]; [11],98%
same,Oxy (%),[7]; [11],0%
same,mono-lauroyl-Oxy (%),[7]; [11],2%
same,"6,14-bis-lauroyl-Oxy (%)",[7]; [12],98%
same,Oxy (%),[7]; [12],0%
same,mono-lauroyl-Oxy (%),[7]; [12],2%
same,"6,14-bis-lauroyl-Oxy (%)",[7]; [13],94.3%
same,Oxy (%),[7]; [13],0%
same,mono-lauroyl-Oxy (%),[7]; [13],5.7%
same,"6,14-bis-lauroyl-Oxy (%)",[7]; [14],99%
same,Oxy (%),[7]; [14],0%
same,mono-lauroyl-Oxy (%),[7]; [14],0%
same,"6,14-bis-lauroyl-Oxy (%)",[7]; [15],98.7%
same,Oxy (%),[7]; [15],0%
same,mono-lauroyl-Oxy (%),[7]; [15],1.3%
same,"6,14-bis-lauroyl-Oxy (%)",[7]; [16],98.4%
same,Oxy (%),[7]; [16],0%
same,mono-lauroyl-Oxy (%),[7]; [16],1.6%
same,"6,14-bis-lauroyl-Oxy (%)",[7]; [17],96.2%
same,Oxy (%),[7]; [17],0%
same,mono-lauroyl-Oxy (%),[7]; [17],3.8%
same,"6,14-bis-lauroyl-Oxy (%)",[7]; [18],93.4%
same,Oxy (%),[7]; [18],0%
same,mono-lauroyl-Oxy (%),[7]; [18],6.6%
same,"6,14-bis-lauroyl-Oxy (%)",[7]; [19],99%
same,Oxy (%),[7]; [19],0%
same,mono-lauroyl-Oxy (%),[7]; [19],0%
same,"6,14-bis-lauroyl-Oxy (%)",[7]; [20],83.7%
same,Oxy (%),[7]; [20],0.5%
same,mono-lauroyl-Oxy (%),[7]; [20],16.3%
same,"6,14-bis-lauroyl-Oxy (%)",[7]; [21],63.9%
same,Oxy (%),[7]; [21],1%
same,mono-lauroyl-Oxy (%),[7]; [21],33.1%
same,"6,14-bis-lauroyl-Oxy (%)",[7]; [22],14.7%
same,Oxy (%),[7]; [22],2.8%
same,mono-lauroyl-Oxy (%),[7]; [22],60.5%
same,"6,14-bis-lauroyl-Oxy (%)",[7]; [23],0%
same,Oxy (%),[7]; [23],5.4%
same,mono-lauroyl-Oxy (%),[7]; [23],94.6%
same,"6,14-bis-lauroyl-Oxy (%)",[7]; [24],0%
same,Oxy (%),[7]; [24],10.2%
same,mono-lauroyl-Oxy (%),[7]; [24],89.8%
COCCOCCOCC(=O)OC1=CC[C@@]2(O)[C@H]3Cc4ccc(OC)c5c4[C@@]2(CCN3C)C1O5 (some centres unmarked) [6-PEG oxycodone],Ki,[3],22 nM
same,Ki compared with that of oxycodone (in words),[3],comparable
same,EC50,[5],390 nM
same,% Response Agonist,[5],90%
CCCCCCCCCCCC(=O)OC1=CC[C@@]2(O)[C@H]3Cc4ccc(OC)c5c4[C@@]2(CCN3C)C1O5 (some centres unmarked) [6-lauroyl oxycodone],6-lauroyl-Oxy (%),[2]; 0 h,99%
same,6-lauroyl-Oxy (%),[2]; 0.17 h,56.9%
same,6-lauroyl-Oxy (%),[2]; 0.5 h,54.8%
same,6-lauroyl-Oxy (%),[2]; 1 h,52.6%
same,6-lauroyl-Oxy (%),[2]; 2 h,50.8%
same,6-lauroyl-Oxy (%),[2]; with additional fresh intestinal fluid 30 min,18.6%
same,Ki,[3],96 nM
same,Ki compared with that of oxycodone (in words),[3],comparable
same,EC50,[5],990 nM
same,% Response Agonist,[5],52%
same,6-lauroyl-Oxy (%),[7]; [25],99%
same,Oxy (%),[7]; [25],0%
same,6-lauroyl-Oxy (%),[7]; [26],98%
same,Oxy (%),[7]; [26],1%
same,6-lauroyl-Oxy (%),[7]; [27],98%
same,Oxy (%),[7]; [27],1%
same,6-lauroyl-Oxy (%),[7]; [28],98%
same,Oxy (%),[7]; [28],1%
same,6-lauroyl-Oxy (%),[7]; [29],98%
same,Oxy (%),[7]; [29],1%
same,6-lauroyl-Oxy (%),[7]; [30],99%
same,Oxy (%),[7]; [30],0%
same,6-lauroyl-Oxy (%),[7]; [31],24.5%
same,Oxy (%),[7]; [31],75.5%
same,6-lauroyl-Oxy (%),[7]; [32],7.2%
same,Oxy (%),[7]; [32],92.8%
same,6-lauroyl-Oxy (%),[7]; [33],6.2%
same,Oxy (%),[7]; [33],93.8%
